Measured values reported in patent US20120190751A1, “COMPOUNDS FOR TREATMENTS OF INFLAMMATION” (ANA-MAR AB, priority 2009, published 2012).

Legend:
5-HT1A receptor = target: T1, 5-HT1A receptor (Homo sapiens, UniProt P08908); assay: Radio-ligand binding assay 5-HT1A; settings: 10 μM compound; [3H]-8-OH-DPAT 0.5 nM; human rec. HEK293 cells
T1 sequence (P08908 1-422): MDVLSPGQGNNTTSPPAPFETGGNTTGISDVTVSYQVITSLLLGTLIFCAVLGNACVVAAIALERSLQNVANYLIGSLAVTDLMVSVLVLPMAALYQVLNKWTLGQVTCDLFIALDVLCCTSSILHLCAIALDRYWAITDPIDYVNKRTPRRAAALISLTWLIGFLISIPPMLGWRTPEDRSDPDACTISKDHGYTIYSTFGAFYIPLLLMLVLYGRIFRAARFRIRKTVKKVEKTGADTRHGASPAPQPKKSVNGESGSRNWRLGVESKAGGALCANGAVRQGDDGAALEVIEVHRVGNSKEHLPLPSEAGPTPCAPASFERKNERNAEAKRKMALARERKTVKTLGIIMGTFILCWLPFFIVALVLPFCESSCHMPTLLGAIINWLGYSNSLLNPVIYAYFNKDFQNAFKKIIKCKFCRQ
Protocol: (§1) Determination of binding affinities for various 5-HT receptors was performed by radio-ligand binding assays. Briefly, tissue or cells expressing the receptor of interest were suspended in incubation buffer and radio-ligands and 10 μM N-(2-chloro-3,4-dimethoxybenzylidene-amino)guanidine were added. After incubation, separation of bound and free radio-ligand was done by multiple washings with buffer.
(§2) The results were presented as the percent inhibition of specific binding. The IC50 values were determined by a non-linear least square regression analysis using MathIQ™ (ID Business Solution Ltd., UK). The inhibition constants (Ki) were calculated using the equation of Cheng and Prusoff (Cheng Y, Prusoff W H, Biochem. Pharmacol. 22:3099-3108, 1973) using the observed IC50 of the tested compound, the concentration of radioligand employed in the assay and the historical values for the KD of the ligand.

5HT2B receptor = 5HT2B receptor (Homo sapiens, UniProt P41595); assay: Radio-ligand binding assay 5-HT2B
Protocol: as §1, §2

5-HT3 receptor = target: T2, 5-HT3 receptor (Homo sapiens, UniProt P46098); assay: Radio-ligand binding assay 5-HT3; settings: 10 μM compound; [3H] GR65630 35 nM; human rec. HEK293 cells
T2 sequence (P46098 24-478): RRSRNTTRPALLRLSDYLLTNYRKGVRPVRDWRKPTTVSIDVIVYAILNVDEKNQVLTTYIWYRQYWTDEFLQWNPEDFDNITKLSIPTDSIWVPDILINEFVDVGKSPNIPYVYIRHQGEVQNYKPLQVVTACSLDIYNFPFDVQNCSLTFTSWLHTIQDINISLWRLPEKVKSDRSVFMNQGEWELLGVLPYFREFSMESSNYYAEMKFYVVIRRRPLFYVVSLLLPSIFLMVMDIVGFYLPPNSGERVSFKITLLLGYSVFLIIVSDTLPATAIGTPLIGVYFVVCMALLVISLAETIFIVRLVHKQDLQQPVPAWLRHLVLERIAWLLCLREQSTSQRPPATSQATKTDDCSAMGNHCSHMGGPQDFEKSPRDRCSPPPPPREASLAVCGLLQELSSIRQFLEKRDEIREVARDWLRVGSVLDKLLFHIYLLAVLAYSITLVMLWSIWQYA
Protocol: as §1, §2

5-HT4 receptor = target: T3, 5-HT4 receptor (Cavia porcellus, UniProt O70528); assay: Radio-ligand binding assay 5-HT4; set-up: species or system Guinea pig
T3 construct: tissue or cells expressing the receptor of interest were suspended in incubation buffer; from tissue; host or cells: guinea-pig tissue (which tissue is not visible)
Protocol: as §1, §2

5-HT6 receptor = 5-HT6 receptor (Homo sapiens, UniProt P50406); assay: Radio-ligand binding assay 5-HT6; settings: 10 μM compound; [3H] LSD 1.5 nM; human rec. HEK293 cells
Protocol: as §1, §2

5-HT2B receptor = target: T4, 5-HT2B receptor (Rattus norvegicus, UniProt P30994); assay: 5-HT2B tissue assay (functionality, rat stomach fundus contraction); type: cell-based; settings: FIG. 2, read-out: IC50, antagonistic effect on 5-HT2B
T4 construct: induces contraction in the rat stomach fundus from Wistar rats; from tissue; host or cells: rat (Wistar) stomach fundus
Protocol: (Cohen M L, Fludzinski L A. Contractile serotonergic receptor in rat stomach fundus. J. Pharmacol. Exp. Ther. (1987 October); 243(1):264-269.)
FIG. 2. Antagonistic effect of N-(2-chloro-3,4-dimethoxybenzylideneamino)guanidine on 5-HT2B and 5-HT2C receptors. The functionality of the compound was evaluated with the 5-HT2B tissue assay and the 5-HT2C GTPγS binding assay methods.
N-(2-chloro-3,4-dimethoxybenzylideneamino)guanidine was further tested for functionality against 5-HT2B (Cohen et al. (1987), J. Pharmacol. Exp. Ther. 243:264-269), 5-HT2C (Adlersber M, et al. (2000), J. Neurosci. Res. 61(6):674-685; Cussac D. et al. (2002), Mol. Pharmacol. 62(3):578-589) and 5-HT4 (Reeves et al. (1991), Br. J. Pharmacol. 103:1067-1072).

[1] = tested on: antigen-induced arthritis; assay: Antigen-induced arthritis (AIA) in the rat, knee-joint swelling; type: in vivo
From the text: Antigen-Induced Arthritis (AIA) is a Well-Documented Animal Experimental Model of human arthritic disease (Dumonde, D. C. and Glynn, L. E. (1962), Br. J. Exp. Pathol. 43:373-383). In this model, inflammation is induced by immunization followed by an intra-articular (knee-joint) challenge with the antigen. This causes an increase in knee diameter due to the formation of a pannus, i.e. hyperproliferative synovial tissue, which spreads over the articular cartilage into the bone, leading to erosion and destruction of the joint tissue (Carpenter, T. A. et al. (1994), Skeletal Radiol. 23:429-437).
AIA was applied for a short-term in vivo evaluation of our test compounds, with treatment during 4 days.
Female Dark Agouti rats were sensitized subcutaneously at the tail root with 1 mg mBSA (Sigma A1009) dissolved in 50 μl saline and emulsified in 50 μl Freund's complete adjuvant (Sigma F5881). Eleven days later the rats were challenged (unilateral) with an intra-articular (i.a.) injection of 75 μg mBSA dissolved in 50 μl saline. The procedures were carried out under a brief Isoflurane anaesthesia. Animals were treated once or twice daily with oral administration of N-(2-chloro-3,4-dimethoxybenzylideneamino)guanidine in saline. […] The knee-joint swelling was measured daily with an odimeter/calliper; the body weight was recorded before arthritis induction and at the end of the experiment. […]

[2] = 10 different concentrations, Cheng-Prusoff, FIG. 1

T3 sequence (O70528 whole entry): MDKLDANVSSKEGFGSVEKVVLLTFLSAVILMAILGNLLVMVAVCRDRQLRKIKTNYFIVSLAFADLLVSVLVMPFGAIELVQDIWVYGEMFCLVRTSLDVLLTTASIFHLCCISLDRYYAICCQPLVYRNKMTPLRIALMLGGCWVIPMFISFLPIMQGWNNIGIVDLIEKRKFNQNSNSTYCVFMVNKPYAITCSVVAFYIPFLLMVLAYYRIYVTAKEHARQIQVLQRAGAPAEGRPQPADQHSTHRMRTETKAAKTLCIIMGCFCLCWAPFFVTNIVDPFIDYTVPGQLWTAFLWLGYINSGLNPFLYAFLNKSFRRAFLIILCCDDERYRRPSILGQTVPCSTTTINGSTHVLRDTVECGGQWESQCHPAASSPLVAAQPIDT
Chain of 5HT2B receptor (P41595 whole entry): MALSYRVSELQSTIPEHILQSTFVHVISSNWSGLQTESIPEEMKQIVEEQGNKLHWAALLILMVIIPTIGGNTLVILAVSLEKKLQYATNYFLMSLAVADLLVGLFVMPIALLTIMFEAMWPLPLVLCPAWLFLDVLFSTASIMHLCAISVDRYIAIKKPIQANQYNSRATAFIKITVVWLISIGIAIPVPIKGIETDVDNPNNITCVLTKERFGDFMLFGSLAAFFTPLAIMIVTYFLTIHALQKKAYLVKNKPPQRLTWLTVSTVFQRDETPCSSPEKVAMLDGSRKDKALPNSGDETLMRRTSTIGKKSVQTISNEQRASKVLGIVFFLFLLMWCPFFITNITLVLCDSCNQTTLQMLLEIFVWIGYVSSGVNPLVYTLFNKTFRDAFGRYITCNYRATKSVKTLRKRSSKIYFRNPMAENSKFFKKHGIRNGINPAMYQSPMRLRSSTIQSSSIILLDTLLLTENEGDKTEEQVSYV
T4 sequence (P30994 whole entry): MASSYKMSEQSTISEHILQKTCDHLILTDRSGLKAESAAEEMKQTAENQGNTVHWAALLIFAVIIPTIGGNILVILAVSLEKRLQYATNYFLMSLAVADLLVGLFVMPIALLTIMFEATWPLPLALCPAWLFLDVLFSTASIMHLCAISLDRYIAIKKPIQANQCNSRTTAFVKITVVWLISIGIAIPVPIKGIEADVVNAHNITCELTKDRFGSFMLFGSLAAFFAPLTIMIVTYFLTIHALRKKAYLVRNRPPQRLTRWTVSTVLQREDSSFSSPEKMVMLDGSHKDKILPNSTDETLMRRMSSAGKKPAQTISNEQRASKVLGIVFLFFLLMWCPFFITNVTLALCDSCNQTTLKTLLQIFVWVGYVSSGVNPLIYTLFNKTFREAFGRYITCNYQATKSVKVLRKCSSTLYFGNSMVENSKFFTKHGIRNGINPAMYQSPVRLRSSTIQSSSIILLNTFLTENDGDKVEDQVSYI
Chain of 5-HT6 receptor (P50406 whole entry): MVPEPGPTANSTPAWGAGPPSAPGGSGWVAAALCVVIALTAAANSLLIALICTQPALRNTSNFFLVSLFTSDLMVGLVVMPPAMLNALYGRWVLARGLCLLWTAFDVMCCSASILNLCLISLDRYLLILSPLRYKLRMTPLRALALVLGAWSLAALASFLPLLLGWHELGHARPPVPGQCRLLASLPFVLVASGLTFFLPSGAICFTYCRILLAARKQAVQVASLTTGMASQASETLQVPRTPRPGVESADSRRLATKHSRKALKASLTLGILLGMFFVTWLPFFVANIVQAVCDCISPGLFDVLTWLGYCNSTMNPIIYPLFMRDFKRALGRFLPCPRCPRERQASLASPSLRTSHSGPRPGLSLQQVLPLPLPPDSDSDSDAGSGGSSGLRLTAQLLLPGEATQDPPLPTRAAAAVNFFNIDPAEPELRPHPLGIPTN

**Q.** With COc1ccc(C=NNC(=N)N)c(Cl)c1OC [N-(2-chloro-3,4-dimethoxybenzylideneamino)guanidine] as the compound, how does the inhibition at 10 µM (5-HT1A receptor) read?
**A.** The inhibition at 10 µM was 17%.

**Q.** What about the inhibition at 10 µM (5HT2B receptor; 10 μM compound, [3H] LSD 1.2 nM, human rec. CHO.K1 cells) of the same compound?
**A.** Its inhibition at 10 µM is 107%.

**Q.** And the Ki (5HT2B receptor; [2])?
**A.** Its Ki is 0.263 µM.

**Q.** What about the inhibition at 10 µM (5-HT3 receptor) of the same compound?
**A.** Its inhibition at 10 µM is 3.3%.

**Q.** And the inhibition at 10 µM (5-HT4 receptor; 10 μM compound, [3H] GR113808 0.2 nM, guinea pig striata)?
**A.** Its inhibition at 10 µM is 99%.

**Q.** What about the Ki (5-HT4 receptor; [2]) of the same compound?
**A.** The Ki was 0.276 µM.

**Q.** What about the inhibition at 10 µM (5-HT6 receptor) of the same compound?
**A.** Its inhibition at 10 µM is 2.6%.

**Q.** What about the IC50 (5-HT2B receptor) of the same compound?
**A.** Its IC50 is 61.7 µM.

**Q.** And the “effect in AIA at administration one day after disease induction” value ([1]; administration started one day after disease induction)?
**A.** Its value is “therapeutic effect”.

**Q.** And the “knee-joint swelling in AIA” value ([1]; oral, 1-10 mg/kg once or twice daily for 4 days from day of challenge, FIG. 5)?
**A.** Its value is “reproducibly reduce joint swelling”.
